This assay has as its target T1, ADRA1D (Homo sapiens, UniProt P25100).
T1 construct: purchased Promega (in-house HiBiT-GPCR construct library, NanoBRET)
T1 sequence (P25100 1-572): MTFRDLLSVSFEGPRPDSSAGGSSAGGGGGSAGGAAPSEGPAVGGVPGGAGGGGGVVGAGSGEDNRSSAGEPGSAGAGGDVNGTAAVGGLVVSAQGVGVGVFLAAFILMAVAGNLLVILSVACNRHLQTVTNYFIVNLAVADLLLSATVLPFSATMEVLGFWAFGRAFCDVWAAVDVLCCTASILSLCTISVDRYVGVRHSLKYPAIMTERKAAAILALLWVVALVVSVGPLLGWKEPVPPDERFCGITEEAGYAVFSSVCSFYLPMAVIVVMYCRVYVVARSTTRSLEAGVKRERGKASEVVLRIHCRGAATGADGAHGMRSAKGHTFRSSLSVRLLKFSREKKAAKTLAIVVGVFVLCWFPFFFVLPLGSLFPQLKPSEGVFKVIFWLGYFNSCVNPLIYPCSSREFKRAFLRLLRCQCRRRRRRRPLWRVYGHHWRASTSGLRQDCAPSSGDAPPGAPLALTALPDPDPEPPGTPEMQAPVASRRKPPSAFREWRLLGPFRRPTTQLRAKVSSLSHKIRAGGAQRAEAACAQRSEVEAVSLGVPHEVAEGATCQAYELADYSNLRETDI
Kind of assay: NanoBRET screen HiBiT-ADRA1D in HEK293. In kind it is binding. The protocol:
Each tracer candidate was screened across the entire library of HiBiT-GPCR constructs using NanoBRET as the detection modality. As depicted in Figure 4A, the specificity of interactions was evaluated through decrease in BRET due to competitive displacement of a bound tracer by excess parental compound. Each tracer was analyzed for binding to each HiBiT-GPCR fusion in the absence and in the presence of competing parental compound. Briefly, HEK293 cells were transfected with HiBiT-GPCR constructs diluted into promoterless DNA to reduce expression and maximize translocation to the cell surface. Each tracer candidate was then screened at concentrations of 1 μM and 0.1 μM across cells expressing these fusions. Cells were treated for 1.5 h with tracer either alone or in the presence of 20 μM competing parental compound (i.e., control). BRET was measured upon addition of purified LgBiT and subsequent complementation with HiBiT genetically fused to a GPCR. The specificity of interactions was assessed through a decrease in BRET signal due to competitive displacement of the bound tracer. To further gauge the robustness of these interactions, the fold response over the control (i.e., BRETtracer/BRETcontrol) was calculated. We chose a 1.5-fold response, which translates to ≥7-fold signal over noise as the minimal threshold required to score an interaction as positive.
HiBiT-GPCR DNA constructs were diluted in 10 mM Tris pH 8 to a final concentration of 0.01 μg/μL, arrayed in 96-well plates and stored at −20 °C. For transfection, HEK293 cells were suspended in Opti-MEM (without phenol red) supplemented with 2% fetal bovine serum (Seradigm) and 100 units/mL penicillin–streptomycin (Gibco) at a final concentration of 220,000 cells/mL and dispensed into white 96-well plates at 90 μL/well. Subsequent transfections and screens were carried using an Agilent Bravo Automated Liquid Handling Platform. First, the 96-well HiBiT DNA arrays were diluted 25-fold in Opti-MEM (without serum or phenol red) to a final concentration of 0.0004 μg/μL and 20 μL of the diluted DNAs were transferred into new 96-well plates. Next, promoterless carrier DNA (1 μg/μL) was diluted 25-fold (0.04 μg/μL) and then dispensed into the diluted arrays at 20 μL/well. Following brief mixing, Viafect transfection reagent (Promega) diluted 16-fold into Opti-MEM was dispensed into the plates at 40 μL/well. After mixing by pipetting, plates were incubated for 10 min on the pipetting station deck. The DNA-transfection reagent complexes were then added to plates containing cells. To facilitate the screen, 10 μL of DNA-transfection reagent complexes were added in duplicates to the top 4 and bottom 4 rows, resulting in two identical 48-well arrays per plate. Plates with transfected cells were incubated for 18–20 h at 37 °C/5% CO2. A screen of each tracer across the entire library using two different concentrations requires duplicate plates of transfected cells. Depending on the number of tracers being screened, transfections can be scaled up using the same ratios. The next day, for each tracer, four 20× screening solutions in tracer dilution buffer (Promega) were prepared: two duplicates at final concentration of 20 μM and two duplicates at a final concentration of 2 μM. […] The four resulting solutions were diluted 4-fold in Opti-MEM without serum or phenol red to generate 5× solutions (5 µM and 0.5 µM tracer +/− 100 μM competing compound). To screen the library, a BioTek MultiFlo FX liquid dispenser was used to dispense 22.5 µL of tracer solution to the top 4 rows and 22.5 µL tracer + competing compound solution to the 4 bottom rows. Plates were briefly mixed on an orbital shaker and incubated for 1.5 h at room temperature. […] Plates were briefly mixed on an orbital shaker and incubated for 15 min to allow complementation.
Background: In BRET a luciferase serves as donor, and the signal depends on an acceptor being close.

The text below walks through data of PMC8151276, “An Integrated Approach toward NanoBRET Tracers for Analysis of GPCR Ligand Engagement” (Molecules, 2021).

Consider `O=C(CCOCCOCCOCCOCCNC(=O)CCc1ccc2n1[B-](F)(F)[N+]1=C(c3ccc[nH]3)C=CC1=C2)NCCCN1CCN(C2=Nc3ccccc3Oc3ccc(Cl)cc32)CC1` [Loxapine-a-2-NB590], for which the “NanoBRET Fold Response” value (ADRA1D, tracer 0.1μM) stood at 1.07 and the “NanoBRET Fold Response” value (ADRA1D, tracer 1μM) was 1.24.

As to `CCCn1c(=O)c2[nH]c(-c3ccc(OCC(=O)NCCNC(=O)CCOCCNC(=O)c4ccc(CNC(=O)CCc5ccc6n5[B-](F)(F)[N+]5=C(c7ccc[nH]7)C=CC5=C6)cc4)cc3)nc2n(CCC)c1=O` [XAC-3-NB590], the “NanoBRET Fold Response” value runs as follows: (ADRA1D, tracer 0.1μM) 1.02; (ADRA1D, tracer 1μM) 1.10. Consider `CN(C)CCC=C1c2ccccc2CCc2ccc(C(=O)NCCNC(=O)CCOCCOCCOCCOCCNC(=O)CCc3ccc4n3[B-](F)(F)[N+]3=C(c5ccc[nH]5)C=CC3=C4)cc21` [Amitriptyline-a-2-NB590], for which the “NanoBRET Fold Response” value (tracer at 0.1μM) was found to be 1.08 and the “NanoBRET Fold Response” value (tracer at 1μM) is listed as 1.11. As for `COc1ccccc1N1CCN(CCCCN2C(=O)c3ccc(CNC(=O)CCOCCOCCOCCOCCNC(=O)CCc4ccc5n4[B-](F)(F)[N+]4=C(c6ccc[nH]6)C=CC4=C5)cc3C2=O)CC1` [NAN-190-2-NB590], the “NanoBRET Fold Response” value (ADRA1D, tracer 0.1μM) is given as 1.10 and the “NanoBRET Fold Response” value (ADRA1D, tracer 1μM) came out at 1.13. Take `O=C(CCc1ccc2n1[B-](F)(F)[N+]1=C(c3ccc[nH]3)C=CC1=C2)NCc1ccc(C(=O)NCCOCCOCCNCC(O)COc2cccc3ccccc23)cc1` (stereo not shown) [Propranolol-3-NB590]: the “NanoBRET Fold Response” value by setting is: (ADRA1D, 0.1μM) 1.11; (ADRA1D, 1μM) 1.09. As to `COc1ccccc1N1CCN(CCCCN2C(=O)c3ccc(CNC(=O)CCOCCNC(=O)c4ccc(CNC(=O)CCc5ccc6n5[B-](F)(F)[N+]5=C(c7ccc[nH]7)C=CC5=C6)cc4)cc3C2=O)CC1` [NAN-190-3-NB590], the “NanoBRET Fold Response” value (ADRA1D, tracer 1μM) was 1.16. As to `O=C(CCc1ccc2n1[B-](F)(F)[N+]1=C(c3ccc[nH]3)C=CC1=C2)NCc1ccc(C(=O)NCCOCCC(=O)N[C@@H]2CC[C@@]3(O)[C@H]4Cc5ccc(O)c6c5[C@@]3(CCN4CC3CC3)[C@H]2O6)cc1` [Naltrexone-3-NB590], the “NanoBRET Fold Response” value is, setting by setting: (ADRA1D, tracer 0.1μM) 1.36; (ADRA1D, tracer 1μM) 1.31. Turning to `CCOC(=O)c1cc(C#N)c(N2CCC(C(=O)NS(=O)(=O)Cc3ccccc3/C=C/C(=O)NCCNC(=O)CCc3ccc4n3[B-](F)(F)[N+]3=C(c5ccc[nH]5)C=CC3=C4)CC2)nc1C` [AZD1283-1-NB590], the “NanoBRET Fold Response” value reads like this: (ADRA1D, 0.1μM) 1.02; (ADRA1D, 1μM) 1.06. For `COc1ccc2[nH]c(-c3ccc(CNC(=O)CCOCCOCCOCCOCCNC(=O)CCc4ccc5n4[B-](F)(F)[N+]4=C(c6ccc[nH]6)C=CC4=C5)cc3)c(CCNC(C)=O)c2n1` [AzomelatoninICO9-2-NB590], the “NanoBRET Fold Response” value (0.1μM tracer) is reported as 0.81 and the “NanoBRET Fold Response” value (1μM tracer) was determined as 0.96. As to `CC(C)N(CC[C@H](c1ccccc1)c1cc(CCNC(=O)CCOCCOCCOCCOCCNC(=O)CCc2ccc3n2[B-](F)(F)[N+]2=C(c4ccc[nH]4)C=CC2=C3)ccc1O)C(C)C` [Tolterodine-2-NB590], the “NanoBRET Fold Response” value (ADRA1D, tracer 0.1μM) turned out to be 0.95 and the “NanoBRET Fold Response” value (ADRA1D, tracer 1μM) was found to be 1.00. Regarding `N#CN=C(NCCCOc1cccc(CN2CCCCC2)c1)NCCNC(=O)CCOCCOCCOCCOCCNC(=O)CCc1ccc2n1[B-](F)(F)[N+]1=C(c3ccc[nH]3)C=CC1=C2` [Aminopotentidine-2-NB590], the “NanoBRET Fold Response” value (ADRA1D, tracer 0.1μM) is reported as 0.97. `COc1ccc2c(n1)c(CCNC(C)=O)cn2CCNC(=O)CCc1ccc2n1[B-](F)(F)[N+]1=C(c3ccc[nH]3)C=CC1=C2` [Azamelatonin-1-NB590]: the “NanoBRET Fold Response” value (0.1μM tracer) worked out at 1.04 and the “NanoBRET Fold Response” value (1μM tracer) is given as 0.92. Consider `CN(CCC=C1c2ccccc2CCc2ccccc21)C(=O)CCOCCOCCOCCOCCNC(=O)CCc1ccc2n1[B-](F)(F)[N+]1=C(c3ccc[nH]3)C=CC1=C2` [Amitriptyline-e-2-NB590], for which, under “tracer at 1μM”, the “NanoBRET Fold Response” value came to 1.07. Consider `CC(C)N(CC[C@H](c1ccccc1)c1cc(CCNC(=O)c2ccc(CNC(=O)CCc3ccc4n3[B-](F)(F)[N+]3=C(c5ccc[nH]5)C=CC3=C4)cc2)ccc1O)C(C)C` [Tolterodine-BZ-NB590], for which the “NanoBRET Fold Response” value was found to be 1.15 (ADRA1D, tracer 0.1μM) and 1.05 (ADRA1D, tracer 1μM). For `O=C(CCc1ccc2n1[B-](F)(F)[N+]1=C(c3ccc[nH]3)C=CC1=C2)NCCOCCOCCNC(=O)OCCOCCN1CCN(C2=Nc3ccccc3Sc3ccccc32)CC1` [Quetiapine-a-2-NB590], in that order: 1.13 and 1.06. As for `Cc1cc2c(s1)Nc1ccccc1N=C2N1CCN(CCCNC(=O)CCOCCOCCOCCOCCNC(=O)CCc2ccc3n2[B-](F)(F)[N+]2=C(c4ccc[nH]4)C=CC2=C3)CC1` [Olanzapine-a-2-NB590], the “NanoBRET Fold Response” value (ADRA1D, tracer 1μM) was found to be 1.06.

Turning to `CN(C)CCC=C1c2ccccc2CCc2ccc(C(=O)NCCNC(=O)CCOCCOCCOCCOCCNC(=O)CCc3ccc4n3[B-](F)(F)[N+]3=C(c5ccc[nH]5)C=CC3=C4)cc21` [Amitriptyline-b-2-NB590], the “NanoBRET Fold Response” value amounted to 1.05 (tracer at 0.1μM, listed as amitriptyline-b-2-NB590) and 1.07 (tracer at 1μM, listed as amitriptyline-b-2-NB590).

As for `O=C(CCOCCOCCOCCOCCNC(=O)CCc1ccc2n1[B-](F)(F)[N+]1=C(c3ccc[nH]3)C=CC1=C2)NCCCN1CCN(C2=Nc3cc(Cl)ccc3Nc3ccccc32)CC1` [Clozapine-a-2-NB590], the “NanoBRET Fold Response” value was determined as 1.21 (ADRA1D, 0.1μM tracer) and 1.08 (ADRA1D, 1μM tracer). With `Cc1nc2n(c(=O)c1CCN1CCC(c3noc4cc(F)ccc34)CC1)CCCC2OC(=O)NCCOCCOCCOCCOCCNC(=O)CCc1ccc2n1[B-](F)(F)[N+]1=C(c3ccc[nH]3)C=CC1=C2` (stereo not shown) [Risperidone-2-NB590], the “NanoBRET Fold Response” value is, setting by setting: (ADRA1D, tracer 0.1μM) 1.27; (ADRA1D, tracer 1μM) 1.16.
